What was measured:
[1] = test system: P. falciparum HB3 infected cultures; assay: High content image-based assay of merozoite egress and invasion; format: cell-based, Plasmodium falciparum; conditions: HB3, treated at 42 hpi, 10 μM, 24 h
Microsomal stability = format: in vitro ADME; conditions: mouse, liver microsomes
[2] = test system: Synchronized P. falciparum Dd2 cultures; assay: Flow cytometric profiling of inhibition, YOYO-1 staining; format: cell-based, Plasmodium falciparum; conditions: Dd2, treated at 6 hpi ring stage, 5×EC50, sampled at 12 h intervals
[3] = Double-sink parallel artificial membrane permeability assay; format: in vitro ADME

## CC(C)C[C@H](NC(=O)[C@H]1O[C@@H]1C(=O)O)C(=O)NCCCCN=C(N)N [E-64]
[1]
  Effect on merozoite egress and invasion: blocked egress

## C[C@]12CC[C@H]3[C@@H](CCC4=CC(=O)CC[C@@]43C)[C@@H]1CC[C@@H]2O [Testosterone]
Microsomal stability
  remaining at 1 h: 26.1%

## C[C@@H]1CC[C@H]2[C@@H](C)C(=O)O[C@@H]3O[C@@]4(C)CC[C@@H]1[C@]32OO4 [artemisinin]
[2]
  Effect on parasite maturation by flow cytometry (DNA content): maturation is blocked
[1]
  Effect on merozoite egress and invasion: did not block merozoite egress or invasion

## COCCc1ccc(OCC(O)CNC(C)C)cc1 (stereo not shown) [metoprolol]
[3]; pH 5.0
  Permeability pH 5.0 (−logPe): > 5.4 −logPe
[3]; pH 6.2
  Permeability pH 6.2 (−logPe): 4.4 −logPe
[3]; pH 7.4
  Permeability pH 7.4 (−logPe): 3.6 −logPe
